Literature values as cited in patent publication US20260199259A1, “CONTROLLED LIPID SELF-ASSEMBLY FOR SCALABLE MANUFACTURING OF NEXTGENERATION IMMUNE STIMULATING COMPLEXES” (MASSACHUSETTS INSTITUTE OF TECHNOLOGY, priority 2022, published 2026).

Columns and labels:
chick embryo eggs = conditions: measured by lethal dose in chick embryo eggs

Q: Which “factor of toxicity reduction relative to LPS” value (chick embryo eggs) does the source give for 4′-monophosporyl lipid A [MPLA] here?
A: more than 1000

Q: Which results are given for QS-21?
A: micelle size (aqueous solutions): ~ 7 nm; solubility (in PBS): up to 30 mg/mL
